Values quoted from earlier work, collected in patent US5354868A, “Process for the preparation of (+)-hydantocidin and analogs thereof” (American Cyanamid Company, priority 1993, dated 1994).

How the values were obtained:
[1] = test system: annual and perennial weeds; conditions: compared with glyphosphate and bialaphos
mammals = conditions: in vivo

For `O=C1NC(=O)[C@@]2(N1)O[C@H](CO)[C@@H](O)[C@H]2O` [(+)-Hydantocidin, D-ribose-1-spiro-5'-N^1' -β-hydantoin], the herbicidal activity [1] is given as “herbicidal activity at levels comparable to commercial standards such as glyphosphate and bialaphos” and the toxicity to mammals (mammals) is given as “non-toxic to mammals”.
